In ChEMBL document CHEMBL1148057, “1'-(2-Phenyl-ethylene)-ditryptophenaline, a new dimeric diketopiperazine from Aspergillus flavus” (J Nat Prod, 1994):
Activity calls are given as the source filed them. The rule behind the calls is not given here.

Assays:
Substance-P receptor [1] = target: T1, Substance-P receptor (Homo sapiens, UniProt P25103); assay: Inhibition of substance P receptor at 100 uM
Substance-P receptor [2] = target: T1, Substance-P receptor; assay: Inhibition of substance P receptor

T1 sequence (P25103 whole entry): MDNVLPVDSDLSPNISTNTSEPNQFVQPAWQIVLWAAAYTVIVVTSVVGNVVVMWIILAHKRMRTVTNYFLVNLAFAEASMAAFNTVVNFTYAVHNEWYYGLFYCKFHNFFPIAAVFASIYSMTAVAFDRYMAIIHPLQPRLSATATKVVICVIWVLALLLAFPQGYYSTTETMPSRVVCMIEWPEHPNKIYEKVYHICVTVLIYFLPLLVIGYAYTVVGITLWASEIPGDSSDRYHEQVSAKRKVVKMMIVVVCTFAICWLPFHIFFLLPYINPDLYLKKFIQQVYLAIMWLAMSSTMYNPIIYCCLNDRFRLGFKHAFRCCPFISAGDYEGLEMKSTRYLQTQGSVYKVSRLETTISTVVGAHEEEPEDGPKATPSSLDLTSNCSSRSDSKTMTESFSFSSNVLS

CN1C(=O)[C@@H]2C[C@@]3([C@@]45C[C@H]6C(=O)N(C)[C@@H](Cc7ccccc7)C(=O)N6[C@@H]4N(/C=C/c4ccccc4)c4ccccc45)c4ccccc4N[C@H]3N2C(=O)[C@@H]1Cc1ccccc1
Activity (Substance-P receptor [1]): inactive

CN1C(=O)[C@@H]2C[C@@]3([C@@]45C[C@H]6C(=O)N(C)[C@@H](Cc7ccccc7)C(=O)N6[C@@H]4Nc4ccccc45)c4ccccc4N[C@H]3N2C(=O)[C@@H]1Cc1ccccc1 [DITRYPTOPHENALINE]
IC50 (Substance-P receptor [2]): 12 µM

O=C1N[C@@H](Cc2ccccc2)C(=O)N2[C@H]3Nc4ccccc4[C@@]3([C@]34C[C@H]5C(=O)N[C@@H](Cc6ccccc6)C(=O)N5[C@H]3Nc3ccccc34)C[C@@H]12
IC50 (Substance-P receptor [2]): 0.23 µM
